Values after ≈ are worked out from the molar mass of the structure shown. “Also recorded” adds a separate entry of the source.
Assays:
C. difficile 630 = experiment: C. difficile mouse infection model; assay type: in vivo, C57BL/6 mice; conditions: for rate of C. difficile clearance from feces: halicin 15 mg/kg, metronidazole 50 mg/kg, vehicle 10% PEG 300
[1] = tested on: E. coli strains harboring plasmid-borne antibiotic-resistance genes; assay type: cell-based
E. coli [2] = assay type: cell-based
[3] = tested on: ciprofloxacin-resistant gyrA S83A mutant of BW25113; assay type: cell-based, E. coli
[4] = tested on: E. coli, S. aureus, Klebsiella pneumoniae, A. baumannii, and P. aeruginosa; experiment: ZINC15 compound validation, growth inhibition against a range of pathogens; assay type: cell-based; conditions: LB media
[5] = tested on: E. coli in a metabolically repressed, antibiotic-tolerant state; experiment: Bacterial cell killing assay, E. coli in nutrient-free buffer (PBS); assay type: cell-based
[6] = tested on: A. baumannii clinical isolates; experiment: Growth inhibition of multidrug-resistant clinical isolates, A. baumannii; assay type: cell-based; conditions: 36 multidrug-resistant clinical isolates
E. coli [7] = experiment: Growth inhibition of E. coli in pH-adjusted or bicarbonate-supplemented media
E. coli persister cells = experiment: Killing of E. coli persister cells after ampicillin treatment; assay type: cell-based; conditions: cells that remained after treatment with ampicillin
E. coli [8] = assay type: cell-based; remark: listed apart in the source
E. coli MC1061 = experiment: DiSC3(5) assay, E. coli; assay type: cell-based; conditions: early-log cells in buffer
M. tuberculosis H37Rv = experiment: Growth inhibition of M. tuberculosis; assay type: cell-based; conditions: Mycobacterium tuberculosis, 7H9 medium, stated as 1×MIC
[9] = tested on: daptomycin-resistant RN4220 strain (Δdsp1); assay type: cell-based, S. aureus
[10] = tested on: Pseudomonas aeruginosa clinical isolates; experiment: Growth inhibition of multidrug-resistant clinical isolates, P. aeruginosa; assay type: cell-based; conditions: 36 multidrug-resistant clinical isolates
C. difficile strain 630 = experiment: Growth inhibition of C. difficile 630 in vitro; assay type: cell-based; conditions: Clostridioides difficile; C. difficile strain 630, in vitro
E. coli BW25113 [11] = experiment: Growth inhibition assay against E. coli; assay type: cell-based; conditions: Escherichia coli, rich growth conditions, read-out: minimum inhibitory concentration (MIC)
MRSA = experiment: Activity against MRSA; assay type: cell-based, Staphylococcus aureus
S. aureus USA300 = experiment: Growth inhibition of S. aureus in pH-adjusted media; assay type: cell-based, Staphylococcus aureus
M. tuberculosis = experiment: Bacterial cell killing assay, M. tuberculosis in 7H9 media; assay type: cell-based, Mycobacterium tuberculosis; conditions: 16 μg/ml
ΔnfsAΔnfsB E. coli = assay type: cell-based; conditions: deletion of nfsA and nfsB
A. baumannii CDC 288 [12] = experiment: Growth inhibition of pan-resistant A. baumannii CDC 288 in vitro; assay type: cell-based; conditions: Acinetobacter baumannii, CDC288, A. baumannii strain 288 (CDC)
E. coli BW25113 [13] = experiment: Evolution of resistance (serial passage, spontaneous suppressor generation); assay type: cell-based; conditions: 30 days serial passaging in liquid media; seven days on solid media
[14] = tested on: Carbapenem-resistant Enterobacteriaceae (CRE) clinical isolates; assay type: cell-based
A. baumannii 288 cells = experiment: Bacterial cell killing assay, A. baumannii CDC 288 in PBS; assay type: cell-based; conditions: metabolically repressed
A. baumannii CDC 288 [15] = experiment: A. baumannii mouse wound infection model; assay type: in vivo, Balb/c mice; conditions: halicin 0.5% w/v topical, 25 hours post-infection
E. coli [16] = experiment: Growth inhibition checkerboards of halicin in combination; assay type: cell-based

`Cc1ncc([N+](=O)[O-])n1CCO` [Metronidazole, metronidazole, reference compound] was tested, and the “rate of C. difficile clearance from feces” value (C. difficile 630) was “did not result in enhanced rates of clearance relative to vehicle controls”.

In the case of `C[C@H]1CN(c2cc3c(cc2[N+](=O)[O-])c(=O)c(C(=O)O)cn3C2CC2)CCN1N=Nc1ccc(S(N)(=O)=O)cc1` [ZINC000100032716, 1-Cyclopropyl-7-[(3S)-3-methyl-4-[(4-sulfamoylphenyl)diazenyl]piperazin-1-yl]-6-nitro-4-oxoquinoline-3-carboxylic acid], the “activity against E. coli harboring resistance determinants” value [1] is reported as “overcome an array of common resistance determinants”, the “impact of plasmid-borne fluoroquinolone resistance on MIC” value [1] is reported as “only weakly impacted; also recorded: minor increase in MIC” and the “bactericidal activity against E. coli” value (E. coli [2]) is reported as “bactericidal activity”. For the same molecule, the “impact of chromosomal resistance” value [3] was “only weakly impacted”, the “smaller change in MIC between gyrA mutant and wildtype E. coli relative to ciprofloxacin” value ([3]; gyrA S83A vs BW25113) was 4 fold and the “spectrum of growth inhibitory activity” value [4] was “potent broad-spectrum activity”.

`CC1(C)S[C@@H]2[C@H](NC(=O)[C@H](N)c3ccccc3)C(=O)N2[C@H]1C(=O)O` [ampicillin, reference compound] was tested, and the “bacterial cell killing, metabolically active E. coli” value (E. coli [2]) was “efficacy against metabolically active cells” and the “bactericidal activity against metabolically repressed, antibiotic-tolerant E. coli” value [5] was “unable to eradicate E. coli”.

With `Nc1nnc(Sc2ncc([N+](=O)[O-])s2)s1` [halicin, 5-[(5-nitro-1,3-thiazol-2-yl)sulfanyl]-1,3,4-thiadiazol-2-amine] the “growth inhibition of A. baumannii clinical isolates” value [6] was “strong growth inhibitory activity”, the “potency as a function of media pH, E. coli” value (E. coli [7]) was “halicin potency decreased as pH increased” and the “effect of sodium bicarbonate on growth inhibition” value (E. coli [7]; 25 mM sodium bicarbonate in growth medium) was “antagonized the action of halicin”. The “eradication of E. coli persister cells” value (E. coli persister cells) was “able to eradicate E. coli persister cells”, the “expression of cell motility genes” value (E. coli [8]) was “rapid downregulation of genes involved in cell motility” and the “expression of iron homeostasis genes” value (E. coli [8]; sub-lethal concentrations) was “upregulation of genes required for iron homeostasis”. For the same molecule, the “DiSC3(5) fluorescence change, E. coli” value (E. coli MC1061) was “immediate decrease in DiSC3(5) fluorescence in a dose-dependent manner”, the “change in MIC in the presence of resistance gene relative to antibiotic-susceptible parent strains” value [1] was “No change in halicin MIC” and the MIC (M. tuberculosis H37Rv) was 16 µg/mL (≈ 61.2 µM). For the same molecule, the “bacterial cell killing, metabolically active E. coli” value (E. coli [2]) was “bacterial cell killing was observed”, the “cross-resistance in daptomycin-resistant S. aureus” value [9] was “did not confer cross-resistance to halicin” and the “growth inhibition of P. aeruginosa clinical isolates” value [10] was “lack of efficacy”. For the same molecule, the MIC (C. difficile strain 630) was 0.5 µg/mL (≈ 1.91 µM), the MIC (E. coli BW25113 [11]) was 2 µg/mL (≈ 7.65 µM) and the “mice sterilized after 72 hours of treatment” value (C. difficile 630; 15 mg/kg gavage every 24 hours) was 3 out of 4. The “mice sterilized after 96 hours of treatment” value (C. difficile 630; 15 mg/kg gavage every 24 hours) was 4 out of 4, the “mice free of infection at 96 hours after treatment” value (C. difficile 630; 15 mg/kg, n=4) was 100% and the “rate of C. difficile clearance from feces” value (C. difficile 630) was “clearance from feces at a greater rate than vehicle or the antibiotic metronidazole”. The “activity against MRSA” value (MRSA) was “potent activity”, the “potency as a function of media pH, Staphylococcus aureus” value (S. aureus USA300) was “halicin potency decreased as pH increased” and the “bactericidal activity against M. tuberculosis” value (M. tuberculosis) was “rapidly bactericidal”. The “change in MIC in nitrofurantoin-resistant E. coli” value (ΔnfsAΔnfsB E. coli) was “did not change”, the MIC (A. baumannii CDC 288 [12]) was 1 µg/mL (≈ 3.83 µM) and the “evolution of resistant mutants” value (E. coli BW25113 [13]) was “not possible to isolate spontaneous suppressor mutants”. The “growth inhibition of CRE clinical isolates” value [14] was “strong growth inhibitory activity”, the “killing of A. baumannii 288 in antibiotic-tolerant conditions” value (A. baumannii 288 cells) was “able to sterilize A. baumannii 288 cells” and the “bacterial load of wound tissue, one mouse” value (A. baumannii CDC 288 [15]) was “≈ 10^5 CFU/g”. The “bacterial load of wound tissue, 5 of the 6 mice” value (A. baumannii CDC 288 [15]; below the limit of detection) was “less than 10^3 CFU/g”, the interaction with kanamycin (E. coli [16]; checkerboard) was “synergized with kanamycin” and the interaction with tetracycline (E. coli [16]; checkerboard) was “antagonized the activity of tetracycline”. The “interaction with Fe^3+ (FeCl3)” value (E. coli [16]; increasing concentrations of environmental Fe^3+) was “enhanced potency of halicin” and the “bactericidal activity against metabolically repressed, antibiotic-tolerant E. coli” value [5] was “retained bactericidal activity against tolerant cells”.

With polymyxin B [reference compound] the “DiSC3(5) fluorescence change, E. coli” value (E. coli MC1061) was “corresponding increase in fluorescence”.

Reference: US12469580B2, “In silico discovery of effective antimicrobials” (MASSACHUSETTS INSTITUTE OF TECHOLOGY, priority 2019, dated 2025)
